According to patent US7235264B2, “Cerebral protection with a gas comprising xenon” (Air Liquide Deutschland GmbH, priority 2002, dated 2007):
Entries after “also recorded” stand apart in the source; their conditions may differ.

How the values were obtained:
brain = assay: administration of xenon (inhalation): cerebral perfusion and oxygen supply in the brain; format: in vivo
[1] = e.g. long-term ventilation, current state of knowledge, cited from earlier work

Q: Which results are given for `[Xe]` [xenon]?
A: cerebral perfusion (brain; administered xenon, available results): improvement in cerebral perfusion; oxygen supply in the brain (brain; administration of xenon or xenon-containing gases, in particular by inhalation): increased; also recorded: improved; cerebral autoregulation (brain; preliminary results): maintained or improved; vasodilator action, especially capillary vasodilator in the capillary vascular system (brain; preliminary results): acts as vasodilator; side effects ([1]; prolonged administration): no side effects; accumulation in the body ([1]; use as medicament): no accumulation; metabolites formed in the body ([1]; use as medicament): no metabolites are formed
